The record followed here is patent EP3046573B1, “AMYLIN ANALOGUES” (Zealand Pharma A/S, priority 2013, dated 2015).

Each structure is given as a SMILES string. Read-outs that look alike come from different tables or passages of the source. Numbered stars: 1 amine (or outer) side, 2 acyl side, 3 side chain; on linkers, the order of the positions; unused ones are H or OH. Bridge positions count the residues as written; N and C are the ends. Square brackets hold non-standard residues; d marks the D form. Peptide text beside a SMILES is read from it. * marks the point of attachment. C20 diacid = O=C(O)CCCCCCCCCCCCCCCCCCC(=O)*; γGlu = O=C(O)[C@H](CCC(=O)[*:2])N[*:1]; NMeI = CC[C@H](C)[C@H](NC)C(=O)O; Sar = CNCC(=O)O

One data set relates to Sprague Dawley (SD) rats. The data set is described as follows: Acute food intake and body weight in normal Sprague Dawley rats. It counts as in vivo. The following applies: vehicle-corrected, dose 30 nmol/kg sc, once; for Body weight loss (%) after 96 hours: mean ± SEM, n = 8. In outline:
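Normal male-unspecified SD rats, n = 8 per group, given a single s.c. peptide dose of 30 nmol/kg just before dark phase, with vehicle and positive control groups. Food intake recorded at 0, 4, 7, 10, 24, 48, 72 and 96 h; body weight daily; means ± SEM.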

The target of data set [1] is T1, human amylin receptor 3 (hAMYR3) consisting of hCTR2 co-expressed with human Receptor Activity Modifying Protein 3 (hRAMP3) (Homo sapiens, UniProt O60896+P30988).
T1 construct: expressed in transfected cells
T1 sequence (P30988 25-474): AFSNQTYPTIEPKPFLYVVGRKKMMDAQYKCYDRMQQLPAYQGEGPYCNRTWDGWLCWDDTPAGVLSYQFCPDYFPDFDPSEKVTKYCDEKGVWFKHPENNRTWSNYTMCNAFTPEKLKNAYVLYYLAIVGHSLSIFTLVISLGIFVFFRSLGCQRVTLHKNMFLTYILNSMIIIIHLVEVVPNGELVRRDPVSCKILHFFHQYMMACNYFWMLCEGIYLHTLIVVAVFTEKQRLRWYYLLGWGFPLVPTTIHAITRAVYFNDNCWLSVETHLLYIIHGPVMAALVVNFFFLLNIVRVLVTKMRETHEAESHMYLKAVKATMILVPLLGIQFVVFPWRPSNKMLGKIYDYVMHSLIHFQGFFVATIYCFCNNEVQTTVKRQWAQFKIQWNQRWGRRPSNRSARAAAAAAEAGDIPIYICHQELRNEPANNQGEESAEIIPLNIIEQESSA
T1 sequence (O60896 24-148 partner): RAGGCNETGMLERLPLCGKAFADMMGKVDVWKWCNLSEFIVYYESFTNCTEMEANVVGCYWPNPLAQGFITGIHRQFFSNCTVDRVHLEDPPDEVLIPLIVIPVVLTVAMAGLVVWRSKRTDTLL
The data set is described as follows: hAMYR3 assay: induction of cAMP (AlphaScreen cAMP Assay kit) in COS7 cells expressing hAMYR3. It counts as cell-based. In a few lines:
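cAMP accumulation read by AlphaScreen in lysates of RAMP-naive COS7 cells stably transfected with hCTR2 plus hRAMP3. Cells exposed to peptide dilutions for 15 min, 37° C, with 100 µM IBMX; 4PL fitting gave EC50 and efficacy relative to pramlintide.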
On the technique in general: Bead proximity is the source of the signal in Alpha formats.

The nature of data set [2]: Assessment of physical stability: fibril formation detected with Thioflavin T (ThT), lag-time. The following applies: 1 mg/ml peptide, 40 µM ThT, FND = Fibrillation not detected; for Fibrillation lag time (hours) pH 4.0 (Ac): 50 mM acetate buffer pH 4.0, 96 hours at 40°C; for Fibrillation lag time (hours) pH 7.0 (His): 50 mM histidine buffer pH 7.0, 96 hours at 40°C; for Fibrillation lag time (hours) pH 7.0 (Ph): 50 mM phosphate buffer pH 7.0, 96 hours at 40°C. It counts as physicochemical. In outline:
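Test peptide at 1 mg/ml with 40 µM ThT in 50 mM phosphate (pH 7.0), 50 mM histidine (pH 7.0) or 50 mM acetate (pH 4.0), in triplicate, 40° C. for 96 h. Fluorescence read every 10 min after 300 s agitation. Lag-time (h) taken as intersection of linear fits to initial stable and growth phases.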

[3] abbreviates: cAMP induction in COS7 cells expressing hAMYR3, average of a minimum of 3 determinations, read-out: hAMY R3 EC50.

The EC50 is the midpoint of the concentration-response curve.

For `CC[C@H](C)[C@@H](C(=O)N[C@@H](CC(C)C)C(=O)N[C@@H](CO)C(=O)N[C@@H](CO)C(=O)N[C@H](C(=O)N[C@@H](CCC(=O)O)C(=O)N[C@H](C(=O)NCC(=O)N[C@@H](CO)C(=O)N[C@@H](CCC(=O)O)C(=O)N[C@H](C(=O)N1CCC[C@H]1C(N)=O)[C@@H](C)O)C(C)C)[C@@H](C)O)N(C)C(=O)[C@H](C)NC(=O)CN(C)C(=O)[C@H](Cc1ccccc1)NC(=O)[C@H](CO)NC(=O)[C@H](CO)NC(=O)[C@H](CO)NC(=O)[C@H](CO)NC(=O)[C@H](CCCNC(=N)N)NC(=O)[C@H](Cc1c[nH]cn1)NC(=O)[C@H](CC(C)C)NC(=O)[C@H](Cc1ccccc1)NC(=O)[C@H](CCC(=O)O)NC(=O)[C@H](C)NC(=O)[C@H](CC(C)C)NC(=O)[C@H](CCCNC(=N)N)NC(=O)[C@H](C)NC(=O)[C@@H](NC(=O)[C@H](C)NC(=O)[C@@H]1CSSC[C@H](NC(=O)[C@H](CCCNC(=N)N)NC(=O)CC[C@H](NC(=O)CCCCCCCCCCCCCCCCCCC(=O)O)C(=O)O)C(=O)N[C@@H](CC(N)=O)C(=O)N[C@@H]([C@@H](C)O)C(=O)N[C@@H](C)C(=O)N[C@@H]([C@@H](C)O)C(=O)N1)[C@@H](C)O` [Compound 118, [19CD]-isoGlu-RC()NTATC()ATARLAEFLHRSSSSF-Gly(Me)-A-Ile(Me)-LSSTEVGSETP-NH2] ({C20 diacid-γGlu}-RCNTATCATARLAEFLHRSSSSF[Sar]A[NMeI]LSSTEVGSETP-NH2; disulfide 2-7), in the data set on Sprague Dawley (SD) rats, the “Food intake inhibition (%) after 48 hours” value (shortened to “Food intake inhibition (%)”) is reported as 93% and the “Body weight loss (%) after 96 hours” value was determined as 13 ± 1.8%. The EC50 in data set [1] (setting [3]) worked out at 120 pM. Also, in data set [2], the “Fibrillation lag time (hours) pH 4.0 (Ac)” value (from here on “Fibrillation lag time … (Ac)”) is recorded as “FND”, the “Fibrillation lag time (hours) pH 7.0 (His)” value (“Fibrillation lag time … (His)” for short) is on record as “FND” and the “Fibrillation lag time (hours) pH 7.0 (Ph)” value (from here on “Fibrillation lag time … (Ph)”) was “FND”.

Turning to `CC[C@H](C)[C@@H](C(=O)N[C@@H](CC(C)C)C(=O)N[C@@H](CO)C(=O)N[C@@H](CO)C(=O)N[C@H](C(=O)N[C@@H](CCC(=O)O)C(=O)N[C@H](C(=O)NCC(=O)N[C@@H](CO)C(=O)N[C@@H](CCC(=O)O)C(=O)N[C@H](C(=O)N1CCC[C@H]1C(N)=O)[C@@H](C)O)C(C)C)[C@@H](C)O)N(C)C(=O)[C@H](C)NC(=O)CN(C)C(=O)[C@H](Cc1ccccc1)NC(=O)[C@H](CO)NC(=O)[C@H](CO)NC(=O)[C@H](CO)NC(=O)[C@H](CO)NC(=O)[C@H](CCCNC(=N)N)NC(=O)[C@H](Cc1c[nH]cn1)NC(=O)[C@H](CC(C)C)NC(=O)[C@H](Cc1ccccc1)NC(=O)[C@H](CCC(=O)O)NC(=O)[C@H](C)NC(=O)[C@H](CC(C)C)NC(=O)[C@H](CCCNC(=N)N)NC(=O)[C@H](CC(=O)O)NC(=O)[C@@H](NC(=O)[C@H](C)NC(=O)[C@@H]1CSSC[C@H](NC(=O)[C@H](CCCNC(=N)N)NC(=O)CC[C@H](NC(=O)CCCCCCCCCCCCCCCCCCC(=O)O)C(=O)O)C(=O)N[C@@H](CC(N)=O)C(=O)N[C@@H]([C@@H](C)O)C(=O)N[C@@H](C)C(=O)N[C@@H]([C@@H](C)O)C(=O)N1)[C@@H](C)O` [Compound 120, [19CD]-isoGlu-RC()NTATC()ATDRLAEFLHRSSSSF-Gly(Me)-A-Ile(Me)-LSSTEVGSETP-NH2] ({C20 diacid-γGlu}-RCNTATCATDRLAEFLHRSSSSF[Sar]A[NMeI]LSSTEVGSETP-NH2; disulfide 2-7), the “Body weight loss (%) after 96 hours” value with Sprague Dawley (SD) rats is recorded as 12 ± 1.8%. Moreover, the midpoint of the response in data set [1], the EC50, lay at 150 pM. Further, in data set [2], the “Fibrillation lag time … (Ac)” value was “FND”, the “Fibrillation lag time … (His)” value is given as “FND” and the “Fibrillation lag time … (Ph)” value is “FND”.

Regarding `CC[C@H](C)[C@@H](C(=O)N[C@@H](CC(C)C)C(=O)N[C@@H](CO)C(=O)N[C@@H](CO)C(=O)N[C@H](C(=O)N[C@@H](CCC(=O)O)C(=O)N[C@H](C(=O)NCC(=O)N[C@@H](CO)C(=O)N[C@@H](CCC(=O)O)C(=O)N[C@H](C(=O)N1CCC[C@H]1C(N)=O)[C@@H](C)O)C(C)C)[C@@H](C)O)N(C)C(=O)[C@H](C)NC(=O)CN(C)C(=O)[C@H](Cc1ccccc1)NC(=O)[C@H](CO)NC(=O)[C@H](CO)NC(=O)[C@H](CO)NC(=O)[C@H](CO)NC(=O)[C@H](CCCNC(=N)N)NC(=O)[C@H](Cc1c[nH]cn1)NC(=O)[C@H](CC(C)C)NC(=O)[C@H](Cc1ccccc1)NC(=O)[C@H](CCC(=O)O)NC(=O)[C@H](C)NC(=O)[C@H](CC(C)C)NC(=O)[C@H](CCCNC(=N)N)NC(=O)[C@H](CCC(=O)O)NC(=O)[C@@H](NC(=O)[C@H](C)NC(=O)[C@@H]1CSSC[C@H](NC(=O)[C@H](CCCNC(=N)N)NC(=O)CC[C@H](NC(=O)CCCCCCCCCCCCCCCCCCC(=O)O)C(=O)O)C(=O)N[C@@H](CCC(=O)O)C(=O)N[C@@H]([C@@H](C)O)C(=O)N[C@@H](C)C(=O)N[C@@H]([C@@H](C)O)C(=O)N1)[C@@H](C)O` [Compound 134, [19CD]-isoGlu-RC()ETATC()ATERLAEFLHRSSSSF-Gly(Me)-A-Ile(Me)-LSSTEVGSETP-NH2] ({C20 diacid-γGlu}-RCETATCATERLAEFLHRSSSSF[Sar]A[NMeI]LSSTEVGSETP-NH2; disulfide 2-7), in the data set with Sprague Dawley (SD) rats, the “Food intake inhibition (%)” value was determined as 27% and the “Body weight loss (%) after 96 hours” value is 4 ± 3.1 %. Further, in data set [1] (setting [3]), the EC50 stood at 650 pM. Moreover, in data set [2], the “Fibrillation lag time … (Ac)” value is on record as “FND”, the “Fibrillation lag time … (His)” value is given as “FND” and the “Fibrillation lag time … (Ph)” value is “FND”.

Turning to `CC[C@H](C)[C@@H](C(=O)N[C@@H](CC(C)C)C(=O)N[C@@H](CO)C(=O)N[C@@H](CO)C(=O)N[C@H](C(=O)N[C@@H](CCC(=O)O)C(=O)N[C@H](C(=O)NCC(=O)N[C@@H](CO)C(=O)N[C@@H](CCC(=O)O)C(=O)N[C@H](C(=O)N1CCC[C@H]1C(N)=O)[C@@H](C)O)C(C)C)[C@@H](C)O)N(C)C(=O)[C@H](C)NC(=O)CN(C)C(=O)[C@H](Cc1ccccc1)NC(=O)[C@H](CO)NC(=O)[C@H](CO)NC(=O)[C@H](CCCNC(=N)N)NC(=O)[C@H](Cc1c[nH]cn1)NC(=O)[C@H](CC(C)C)NC(=O)[C@H](Cc1ccccc1)NC(=O)[C@H](CCC(=O)O)NC(=O)[C@H](C)NC(=O)[C@H](CC(C)C)NC(=O)[C@H](CCCNC(=N)N)NC(=O)[C@H](CCC(=O)O)NC(=O)[C@@H](NC(=O)[C@H](C)NC(=O)[C@@H]1CSSC[C@H](NC(=O)[C@H](Cc2c[nH]c3ccccc23)NC(=O)CC[C@H](NC(=O)CCCCCCCCCCCCCCCCCCC(=O)O)C(=O)O)C(=O)NCC(=O)N[C@@H]([C@@H](C)O)C(=O)N[C@@H](C)C(=O)N[C@@H]([C@@H](C)O)C(=O)N1)[C@@H](C)O` [Compound 161, [19CD]-isoGlu-WC()GTATC()ATERLAEFLHRSSF-Gly(Me)-A-Ile(Me)-LSSTEVGSETP-NH2] ({C20 diacid-γGlu}-WCGTATCATERLAEFLHRSSF[Sar]A[NMeI]LSSTEVGSETP-NH2; disulfide 2-7), in the data set with Sprague Dawley (SD) rats, the “Food intake inhibition (%)” value stood at 99% and the “Body weight loss (%) after 96 hours” value was 10 ± 2.7%. Moreover, in data set [1] (setting [3]), the EC50 worked out at 190 pM. Further, in data set [2], the “Fibrillation lag time … (Ac)” value is “FND”, the “Fibrillation lag time … (His)” value is on record as “FND” and the “Fibrillation lag time … (Ph)” value is given as “FND”.
